We go through three compounds from patent publication US12545699B2, “Bivalent LECA inhibitors targeting biofilm formation of Pseudomonas aeruginosa” (HELMHOLTZ-ZENTRUM FÜR INFEKTIONSFORSCHUNG GMBH, priority 2019, dated 2026).

The Kd is the free concentration of one partner at which half of the binding sites on the other are occupied at equilibrium, for simple one-to-one binding. Read a high Kd as a looser complex. What is called IC50 is the point on the concentration scale where inhibition reaches its midpoint.

Molecules are shown by their SMILES.

Assay [1] deals with T1, LecA (Pseudomonas aeruginosa, UniProt Q05097).
T1 construct: made in house
In words: isothermal titration microcalorimetry (ITC). Format: binding. To be noted: 25° C. The method, then: Expression and purification of LecA as well as competitive binding by fluorescence polarization was performed as described by Joachim et al. (Org. Biomol. Chem. 2016). Microcalorimetry was performed using an ITC200 (GE Healthcare) at highest possible LecA concentration (typically 200-400 μM) in the cell and titration of ligand in the same buffer at 25° C.
In general terms: In ITC the heat of successive injections is recorded.

Assay [2] deals with T1, LecA. In words: surface plasmon resonance (SPR) direct binding to immobilised LecA. As to the method: All experiments were performed on a BIACORE X100 instrument (GE Healthcare) at 25° C. and a flow rate of 10 μL min^−1. […] LecA was dissolved in 10 mM sodium acetate pH 4.5 (100 μg mL^−1) and injected over the activated chip surface on channel 2 (contact time of 540 s) until the response of ˜4000 RU was reached. Excess free amine groups were capped with an injection of 1 M ethanolamine (contact time 540 s). Bivalent compounds were dissolved in 100% DMSO and subsequently diluted to required concentrations in a running buffer (10 mM phosphate buffer pH 7.4, 2.7 mM KCl, 137 mM NaCl, 100 μM CaCl2, 0.05% Tween 20, 5% DMSO). The bivalent analytes were subjected to single-cycle kinetics analyses (contact time of 120 s and dissociation time of 120 s) consisting of injections of the analytes at 0, 10, 50, 100, and 200 nM over the immobilised-LecA. The chip surface was regenerated by 5× injections of 100 μM 4-nitrophenyl-β-D-galactose (contact time of 120 s). KD determination was performed using BIACORE X100 evaluation software (version 2.0) by applying 1:1 binding model to fit the experimental data. • [1] H. E. Gottlieb, V. Kotlyar, A. Nudelman, J. Org. Chem. 1997, 62, 7512-7515. • [2] M. Seligman, J. Biol. Chem. 1952, 195, 239-249. • [3] S. T. Xue, W. Y. He, L. L. Ma, H. Q. Wang, B. Wang, G. H. Zheng, X. Y. Ji, T. Zhang, Y. H. Li, J. D. Jiang, et al., Molecules 2013, 18, 3789-3805. • [4] Y. Li, H. Mo, G. Lian, B. Yu, Carbohydr. Res. 2012, 363, 14-22. • [5] F. Yang, F. Xie, Y. Zhang, Y. Xia, W. Liu, F. Jiang, C. Lam, Y. Qiao, D. Xie, J. Li, et al., Bioorganic Med. Chem. Lett. 2017, 27, 2166-2170. Synthesis Schemes and Results of Biophysical Assays
Background: SPR reads the build-up and loss of mass on a sensor chip optically.

In assay [3] the target is T1, LecA. In words: competitive binding assay based on fluorescence polarisation (FP). The method, then: Binding of ligands to LecA was evaluated in competitive assay based on fluorescence polarisation.
In general terms: Fluorescence polarisation rises when a labelled molecule tumbles more slowly, as on binding a larger partner.

[4] abbreviates: ITC Kd, Table 1, TBS/Ca2+ buffer.
[5] abbreviates: Table 5, ITC, 100 μM LecA, 0.5 mM 35, TBS/Ca2+ buffer.
The mark [6] stands for this setting: Table 5, ITC, 110 μM LecA, 1 mM 35, TBS/Ca2+ buffer.

T1 sequence (Q05097 whole entry): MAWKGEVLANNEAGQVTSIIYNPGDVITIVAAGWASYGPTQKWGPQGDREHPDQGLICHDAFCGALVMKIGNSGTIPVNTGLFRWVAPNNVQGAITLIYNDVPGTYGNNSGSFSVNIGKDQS

For the compound `COc1ccc(C=NNC(=O)c2cccc(OC3OC(CO)C(O)C(O)C3O)c2)cc1` (stereo not drawn) [Compound F6m], the figures for the Kd at LecA [1] (setting [4]) and at LecA [2] were 2.4 ± 1.33 µM and 4.9 ± 0.1 µM, respectively. At LecA [3] (FP IC50, Table 1, 20 μM LecA, 10 nM reporter ligand 8, TBS/Ca2+ buffer with 25% DMSO (**)), this compound showed a half-maximal inhibitory concentration (IC50) of 21.6 ± 4.5 µM.

As for `COc1ccc(C=NNC(=O)c2ccc(OC3OC(CO)C(O)C(O)C3O)cc2)cc1` (stereo not drawn) [Compound F6p], the equilibrium dissociation constant (Kd) on LecA [1] (setting [4]) worked out at 6.11 ± 0.48 µM; on LecA [2], 4.8 ± 2.1 µM. For the same compound, on LecA [3] (FP IC50, Table 1, 20 μM LecA, 10 nM reporter ligand 8, TBS/Ca2+ buffer with 4% DMSO (*)), the IC50 came out at 23.1 µM.

In the case of `N.N.O=C(CCc1ccc(O[C@@H]2OC(CO)[C@H](O)C(O)C2O)cc1)Nc1ccc(CCc2ccc(NC(=O)CCc3ccc(O[C@@H]4OC(CO)[C@H](O)C(O)C4O)cc3)cc2S(=O)(=O)O)c(S(=O)(=O)O)c1` (stereo partly drawn) [Compound 35], the dissociation constant (Kd) is 0.081 µM at LecA [1] (Kd, Table 5, ITC, 100 μM LecA, 0.5 mM 35, TBS/Ca2+ buffer) and 0.146 µM at LecA [1] (Kd, Table 5, ITC, 110 μM LecA, 1 mM 35, TBS/Ca2+ buffer). For the same compound, the “N (ITC stoichiometry)” value at LecA [1] (setting [5]) was found to be 0.55; on LecA [1] (setting [6]), 0.54. Moreover, the ΔH on LecA [1] (setting [5]) is -19.2 kcal/mol; at LecA [1] (setting [6]) it was -19.5 kcal/mol. For the same compound, the ΔS on LecA [1] (setting [5]) is recorded as −31.8 cal/mol/deg; on LecA [1] (setting [6]), −34.3 cal/mol/deg. Also, the IC50 on LecA [3] (IC50, Table 3, TBS/Ca2+ buffer in presence of 25% DMSO) worked out at 4 ± 2.4 µM.
